Reference: patent US20170307640A1, “METHODS, KITS AND DEVICES FOR DETECTING BII-SPECTRIN, AND BREAKDOWN PRODUCTS THEREOF, AS BIOMARKERS FOR THE DIAGNOSIS OF NEURAL INJURY” (BANYAN BIOMARKERS, INC., priority 2012, published 2017)
“Also recorded” adds a separate entry of the source.

B1: Calpain: purified protease human calpain-2 (BD Bioscience; Catalogue no. 208715) (protein, UniProt P17655 20-700, looked up)
Calpain-2 catalytic subunit: SHDRAIKYLNQDYEALRNECLEAGTLFQDPSFPAIPSALGFKELGPYSSKTRGIEWKRPTEICADPQFIIGGATRTDICQGALGDCWLLAAIASLTLNEEILARVVPLNQSFQENYAGIFHFQFWQYGEWVEVVVDDRLPTKDGELLFVHSAEGSEFWSALLEKAYAKINGCYEALSGGATTEGFEDFTGGIAEWYELKKPPPNLFKIIQKALQKGSLLGCSIDITSAADSEAITFQKLVKGHAYSVTGAEEVESNGSLQKLIRIRNPWGEVEWTGRWNDNCPSWNTIDPEERERLTRRHEDGEFWMSFSDFLRHYSRLEICNLTPDTLTSDTYKKWKLTKMDGNWRRGSTAGGCRNYPNTFWMNPQYLIKLEEEDEDEEDGESGCTFLVGLIQKHRRRQRKMGEDMHTIGFGIYEVPEELSGQTNIHLSKNFFLTNRARERSDTFINLREVLNRFKLPPGEYILVPSTFEPNKDGDFCIRVFSEKKADYQAVDDEIEANLEEFDISEDDIDDGFRRLFAQLAGEDAEISAFELQTILRRVLAKRQDIKSDGFSIETCKIMVDMLDSDGSGKLGLKEFYILWTKIQKYQKIYREIDVDRSGTMNSYEMRKALEEAGFKMPCQLHQVIVARFADDQLIIDFDNFVRCLVRLETLFKIFKQLDPENTGTIELDLISWLCFSVL

Columns and labels:
[1] = system: rat cerebrocortical cultures; experiment: Neurotoxin challenges of primary cerebrocortical cultures: morphology and βII-spectrin breakdown by Western blot; type: cell-based; conditions: for degeneration in soma and neurites of neuronal cultures under microscope: MTX at 3 hours, STS, EDTA, NMDA at 24 hours, vs untreated control; for βII-SBDP bands after neurotoxin challenge alone (Western blot): NMDA 300 μM, STS 0.5 μM, EDTA 2 mM, MTX 0.5 nM 3 hrs, no inhibitor
Procedure: (§1) All cultures are prepared in quadruplicate. Cerebrocortical cells harvested from 1-day old Sprague-Dawley rat brains are plated on poly-L-lysine coated 6-well culture plates (Erie Scientific, Portsmouth, N.H., USA) according to a previously cited method (Nath et al., 2000) at a density of 4.36×10^5 cells/mL. Cultures are maintained in Dulbecco's modified Eagle's medium (DMEM) with 10% fetal bovine serum in a humidified incubator in an atmosphere of 10% CO2 at 37° C. After 5 days in culture, the media is changed to DMEM with 5% horse serum. Subsequent media changes are performed three times a week. Experiments are performed on days 10 to 11 in vitro when astroglia have formed a confluent monolayer beneath morphologically mature neurons. All animal studies conform to the guidelines outlined in the Guide for the Care and Use of Laboratory Animals from the National Institutes of Health and were approved by the local IACUC.
(§2) Cells are collected and lysed with the same lysis buffer as described above.
(§3) The neuronal lysates are then centrifuged at 15000 g for 5 min at 4° C. to clear and remove insoluble debris, snap-frozen, and stored at −85° C. until use.
(§4) Protein concentrations of culture lysates are determined by bicinchoninic acid microprotein assays (Pierce Inc, Rockford, Ill., USA) with albumin standards. Protein balanced samples are prepared for sodium dodecyl sulfate-polyacrylamide gel electrophoresis (SDS-PAGE) in […] loading buffer containing 0.25 M Tris (pH 6.8), 0.2 M DTT, 8% SDS, 0.02% bromophenol blue, and 20% glycerol in distilled H2O. Twenty micrograms (20 μg) of protein per lane are routinely resolved by SDS-PAGE on 6% Tris/glycine gels (for spectrin protein) and/or 10-20% Tris/glycine gels for 2 hr at 120 V. Following electrophoresis, separated proteins are laterally transferred to polyvinylidene fluoride (PVDF) membranes in a transfer buffer containing 0.50 M glycine, 0.025 M Tris-HC1 (pH 8.3) and 10% methanol at a constant voltage of 20 V for 2 hr at 4° C. in a semi-dry transfer unit (Bio-Rad, Hercules, Calif.).
(§5) Tissue samples (20 μg) are subjected to electrophoresis, equal volumes of samples for SDS/PAGE are prepared in a 2×-fold loading buffer [0.25 M Tris (pH 6.8), 0.2 M DTT, 8% SDS, 0.02% bromophenol blue and 20% glycerol in distilled H2O]. Gels are run at 120 V for 2 hr in a mini-gel unit (Invitrogen Life). Protein bands are transferred to PVDF membrane on a semi-dry Trans-blot unit (Bio-Rad, Hercules, Calif.) at 20 V for 2 hrs. After electrotransfer, blotting membranes are blocked for 1 hr at ambient temperature in 5% non-fat milk in TBST [20 mM Tris/HCl (pH 7.4), 150 mM NaCl and 0.05% (w/v) Tween-20], then incubated with the primary monoclonal antibody in TBST/5% milk. Primary antibodies to be used include mouse anti all-spectrin (Affinity Res. Prod. Nottingham, UK), mouse monoclonal anti βII-spectrin (BD Transduction Laboratories, USA; cat # 612563) and rabbit anti βIII-spectrin (BETHYL Laboratories, Inc. TX, cat # A310-367A). The blots are then washed 3 times for 15 min with TBST and exposed to biotinylated secondary antibodies (Amersham Biosciences, U.K.) followed by a 30 min incubation with streptavidin-conjugated alkaline phosphatase. Colorimetric development is performed with a one-step 5-bromo-4-chloro-3-indolyl phosphate-reagent (Sigma-Aldrich, St. Louis, Mo.). The molecular weights of intact proteins and their potential BDPs are assessed by running along-side rainbow colored molecular weight standards (Amersham Biosciences, U.K.)
Alternatively, neuronal cultures are treated with staurosporine (STS) for 24 hours or with NMDA. (FIG. 2)

αII-spectrin = αII-spectrin breakdown pattern in challenged cerebrocortical cultures with or without inhibitors (Western blot); type: cell-based, rat; conditions: for αII-spectrin breakdown products after neurotoxin challenge alone: EDTA, MTX or NMDA alone; for αII-spectrin fragments (SBDP-150/SBDP-145, SBDP-120) after NMDA challenge with respective protease inhibitor: 300 μM NMDA + 30 μM SNJ-1945 or 20 μM IDN-6556
Procedure: as §1, §2, §3, §4, §5
(§6) Rat cerebrocortical cell cultures are prepared as described above and treated with calpain inhibitor SNJ-1945 and caspase-3 inhibitor IDN-6556 along with different neurotoxic paradigms (FIG. 3).

βII-spectrin [2] = experiment: βII-spectrin proteolytic fragmentation after brain cortex lysate digestion with calpain-2 and caspase-3; type: biochemical, rat
Procedure: as §5, with “Colorimetric development is performed with a one-step 5-bromo-4-chloro-3-indolyl phosphate-reagent (Sigma-Aldrich, St. Louis, Mo.).” left out

βII-spectrin [3] = experiment: Effects of calpain and caspase-3 inhibitors on βII-SBDP pattern in challenged cerebrocortical cultures (Western blot); type: cell-based, rat; conditions: for βII-SBDP bands after MTX challenge with inhibitor: 0.5 nM MTX 3 hrs + 20 μM IDN-6556 or 30 μM SNJ-1945; for βII-SBDP bands after NMDA challenge with inhibitor: 300 μM NMDA + 20 μM IDN-6556 or 30 μM SNJ-1945; for βII-SBDP bands after EDTA challenge with inhibitor: EDTA + 20 μM IDN-6556 or 30 μM SNJ-1945, pretreated 1 hr
Procedure: as §1, §2, §3, §4, §5, §6

Molecule | degeneration in soma and neurites of neuronal cultures under microscope [1] | βII-SBDP bands after neurotoxin challenge alone (Western blot) [1] | αII-spectrin breakdown products after neurotoxin challenge alone (αII-spectrin) | βII-SBDP bands after MTX challenge with inhibitor (βII-spectrin [3]) | βII-SBDP bands after NMDA challenge with inhibitor (βII-spectrin [3]) | βII-SBDP bands after EDTA challenge with inhibitor (βII-spectrin [3]) | αII-spectrin fragments (SBDP-150/SBDP-145, SBDP-120) after NMDA challenge with respective protease inhibitor (αII-spectrin) | also measured
C=CC[C@H](C)[C@H](C)C[C@@H](O)[C@H](O)[C@@H]1CC[C@@]2(C)O[C@@]3(C)C[C@@]4(C)O[C@H]5/C=C\C[C@H]6O[C@H]7C[C@H]8O[C@H]9C[C@@]%10(C)O[C@@](C)([C@@H]%11CC[C@H]%12O[C@@]%13(C)C[C@H]%14O[C@@]%15(C)C[C@H]%16O[C@@]%17(C)C[C@@H](O)[C@H]([C@@H]%18O[C@H]%19[C@H](O)[C@@H](O)[C@H](C[C@H](O)C[C@@H](O)[C@@H]%20O[C@H]%21[C@H](O)[C@@H](O)[C@H]([C@@H]%22O[C@@H]%23[C@H](O)[C@H]%24O[C@H]%25C[C@H]%26O[C@@H](C[C@H](O)[C@@H](O)[C@H]%27O[C@H]%28[C@H](O)[C@H]%29O[C@H]%30C[C@H]%31O[C@H]%32[C@@H](O)[C@@H](O)[C@H]([C@H](C)[C@H](O)[C@H](C)CC[C@H](OS(=O)(=O)O)[C@H](O)[C@H](C)C[C@@H](O)C(=C)/C(C)=C/CO)O[C@@H]%32[C@H](O)C[C@]%31(C)O[C@@H]%30C[C@]%29(C)O[C@@H]%28C[C@H]%27O)[C@H](OS(=O)(=O)O)[C@H](O)[C@@H]%26O[C@@H]%25C[C@@H]%24O[C@H]%23[C@H](O)[C@H]%22O)O[C@H]%21C[C@H]%20O)O[C@H]%19C[C@H]%18O)O[C@@H]%17[C@H](O)[C@]%16(C)O[C@@H]%15CC[C@]%14(C)O[C@@H]%13C[C@@H]%12O%11)[C@H](O)C[C@@H]%10O[C@]9(C)CC[C@]8(C)O[C@]7(C)C[C@@H]6O[C@@H]5C[C@@H]4O[C@@H]3C[C@@H]2O1 [MTX, maitotoxin] | significant degeneration | strong βII-SBDPs of 110 kDa and 85 kDa bands; also recorded: βII-SBDPs of 110 kDa and 85 kDa are observed | presence of the prominent calpain-mediated SBDP-145 kDa band |  |  |  |  | βII-SBDPs generated by EDTA and MTX treatments used as controls for apoptotic and necrotic injury (βII-spectrin [2]; brain lysates treated with MTX and EDTA, comparators in FIG. 8): 110/85
COCCOCCOC(=O)N[C@@H](CC(C)C)C(=O)N[C@@H](Cc1ccccc1)C(=O)C(=O)NC1CC1 [SNJ-1945] |  |  |  | no βII-SBDPs observed | only βII-SBDP-108 kDa band | strong βII-SBDP 108 kDa/weak 80 kDa bands | strongly inhibited | αII-spectrin calpain-mediated SBDP-145 after MTX challenge with inhibitor (αII-spectrin; MTX + SNJ-1945): absence
C[C@H](NC(=O)C(=O)Nc1ccccc1C(C)(C)C)C(=O)N[C@@H](CC(=O)O)C(=O)COc1c(F)c(F)cc(F)c1F [IDN-6556] |  |  |  | βII-SBDPs of 110 kDa and 85 kDa are observed | much weaker | no βII-SBDPs | strongly inhibited | αII-spectrin caspase-mediated SBDP-120 after EDTA challenge with inhibitor (αII-spectrin; EDTA + IDN-6556): absence
CN[C@H](CC(=O)O)C(=O)O [NMDA, N-methyl-D-aspartate] | significant degeneration | dominant signal of calpain-mediated βII-spectrin breakdown product (βII-SBDP) of 110 kDa and 85 kDa, with minimal caspase mediated βII-SBDP of 108 kDa and 80 kDa; also recorded: presence of all the βII-SBDPs (110, 108, 85 and 80 kDa) | prominent calpain-mediated SBDP-150/SBDP-145, with minor bands of caspase-3-mediated SBDP-120 |  |  |  |  | 
CN[C@@H]1C[C@H]2O[C@@](C)([C@@H]1OC)n1c3ccccc3c3c4c(c5c6ccccc6n2c5c31)C(=O)NC4 [STS, staurosporine] | significant degeneration | two prominent βII-SBDP bands of 108 kDa and 80 kDa |  |  |  |  |  | 
B1 |  |  |  |  |  |  |  | βII-SBDPs generated by in vitro protease digestion of cortical tissue lysate (βII-spectrin [2]; intact 260 kDa βII-spectrin, calpain-2 25° C. 30 min, caspase-3 37° C. 4 hrs): prominent 110 and 85 kDa βII-SBDPs in addition to a number of non-specific high molecular bands
